Results on four compounds are retold here after article PMC2151574 (The Journal of General Physiology, 2006).

Assay [1] deals with T1, E321N, E324N mutant BK channel (Mus musculus, UniProt Q08460, E386N/E389N). It counts as cell-based. As to conditions: for decrease of apparent affinity of block in E321N, E324N mutant vs wild type: macroscopic currents.
The target of assay [2] is S6/2-KcsA BK channel construct (Mus musculus, UniProt Q08460, A378T/A381G/E386A/E389T/I387L/I388A/I391F/L377I/L390W/M379S/P385A/S382L/V384T/Y383V). It counts as cell-based.
Chain of S6/2-KcsA BK channel construct (Mus musculus, UniProt Q08460, A378T/A381G/E386A/E389T/I387L/I388A/I391F/L377I/L390W/M379S/P385A/S382L/V384T/Y383V) (Q08460 28-1196 isoform Q08460-2 with the stated changes): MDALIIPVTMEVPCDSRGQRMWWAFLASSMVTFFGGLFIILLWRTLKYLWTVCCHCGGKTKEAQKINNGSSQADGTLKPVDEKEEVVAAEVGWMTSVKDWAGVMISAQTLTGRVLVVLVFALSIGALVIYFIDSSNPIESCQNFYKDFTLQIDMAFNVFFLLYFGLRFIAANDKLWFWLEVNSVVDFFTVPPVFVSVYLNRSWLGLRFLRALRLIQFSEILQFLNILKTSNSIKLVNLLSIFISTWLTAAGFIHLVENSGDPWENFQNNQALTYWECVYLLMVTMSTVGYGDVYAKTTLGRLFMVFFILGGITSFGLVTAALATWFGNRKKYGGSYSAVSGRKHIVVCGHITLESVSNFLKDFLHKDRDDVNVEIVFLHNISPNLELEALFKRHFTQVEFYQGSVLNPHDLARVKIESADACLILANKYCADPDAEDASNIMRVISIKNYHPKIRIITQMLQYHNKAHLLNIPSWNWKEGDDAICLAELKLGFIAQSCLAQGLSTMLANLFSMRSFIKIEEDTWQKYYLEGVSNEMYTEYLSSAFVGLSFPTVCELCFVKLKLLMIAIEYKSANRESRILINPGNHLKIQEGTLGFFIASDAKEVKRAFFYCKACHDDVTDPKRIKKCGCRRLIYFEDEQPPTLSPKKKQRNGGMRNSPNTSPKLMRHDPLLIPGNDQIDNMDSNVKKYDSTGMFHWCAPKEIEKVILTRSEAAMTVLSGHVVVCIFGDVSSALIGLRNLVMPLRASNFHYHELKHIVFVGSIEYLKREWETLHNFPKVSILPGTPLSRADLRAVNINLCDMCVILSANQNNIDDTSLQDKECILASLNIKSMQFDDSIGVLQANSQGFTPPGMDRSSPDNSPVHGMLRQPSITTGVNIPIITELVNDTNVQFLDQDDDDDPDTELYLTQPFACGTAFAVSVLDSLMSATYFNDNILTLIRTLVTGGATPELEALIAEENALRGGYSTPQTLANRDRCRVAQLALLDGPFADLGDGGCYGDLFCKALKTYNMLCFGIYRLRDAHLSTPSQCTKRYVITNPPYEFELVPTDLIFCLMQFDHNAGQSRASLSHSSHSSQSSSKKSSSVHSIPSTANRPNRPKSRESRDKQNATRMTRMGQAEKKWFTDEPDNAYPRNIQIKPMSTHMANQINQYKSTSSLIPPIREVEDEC
The subject of assay [3] is BK channels. As to conditions: cited from earlier work; for time dependence of block of BK currents: internal.
The target in assay [4] is T2, wild-type BK channel (mslo) (Mus musculus, UniProt Q08460). Briefly: Single channel recordings, wild-type BK channel. Particulars: n = 5. It counts as cell-based.
T2 sequence (Q08460 66-1209 limits assumed): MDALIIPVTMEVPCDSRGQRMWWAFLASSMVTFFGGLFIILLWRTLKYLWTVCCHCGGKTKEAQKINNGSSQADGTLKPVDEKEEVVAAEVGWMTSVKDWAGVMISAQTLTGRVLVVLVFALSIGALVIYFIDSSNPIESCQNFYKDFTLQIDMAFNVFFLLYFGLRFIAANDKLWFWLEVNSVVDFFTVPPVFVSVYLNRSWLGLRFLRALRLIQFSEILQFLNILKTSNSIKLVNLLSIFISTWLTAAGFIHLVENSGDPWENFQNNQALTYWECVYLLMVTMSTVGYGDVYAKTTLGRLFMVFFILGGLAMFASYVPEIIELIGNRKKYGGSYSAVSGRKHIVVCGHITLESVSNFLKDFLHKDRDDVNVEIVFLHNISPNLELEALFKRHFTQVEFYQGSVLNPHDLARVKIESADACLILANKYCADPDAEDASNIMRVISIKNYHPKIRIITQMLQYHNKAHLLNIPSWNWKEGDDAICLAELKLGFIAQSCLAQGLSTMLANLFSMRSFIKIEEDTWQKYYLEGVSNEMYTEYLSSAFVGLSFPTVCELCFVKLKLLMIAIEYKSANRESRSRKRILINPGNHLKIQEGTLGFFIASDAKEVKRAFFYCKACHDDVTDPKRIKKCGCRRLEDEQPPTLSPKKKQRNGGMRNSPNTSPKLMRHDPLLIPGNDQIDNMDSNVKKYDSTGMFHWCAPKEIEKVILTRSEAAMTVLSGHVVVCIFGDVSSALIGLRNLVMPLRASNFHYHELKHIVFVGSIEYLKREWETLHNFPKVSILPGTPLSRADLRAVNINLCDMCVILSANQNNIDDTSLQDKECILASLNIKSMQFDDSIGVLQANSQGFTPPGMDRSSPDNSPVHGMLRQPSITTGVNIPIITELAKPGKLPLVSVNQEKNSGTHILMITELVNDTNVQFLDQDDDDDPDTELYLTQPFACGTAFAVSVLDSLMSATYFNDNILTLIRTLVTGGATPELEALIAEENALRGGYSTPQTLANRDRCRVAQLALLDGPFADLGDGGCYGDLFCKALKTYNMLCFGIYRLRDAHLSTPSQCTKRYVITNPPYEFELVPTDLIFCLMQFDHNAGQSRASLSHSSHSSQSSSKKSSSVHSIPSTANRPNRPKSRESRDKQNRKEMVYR
Assay [5] has as its target T1, E321N, E324N mutant BK channel. Description: Single channel recordings, E321N, E324N mutant. Format: cell-based.
Assay [6] has as its system S6/2-KcsA BK channel construct. Format: cell-based, mouse.
Assay [7] addresses wild-type BK channel (mslo, mbr5) (Mus musculus, UniProt Q08460). Briefly: Macroscopic block of wild-type BK currents, inside-out patch clamp. It counts as cell-based. As to conditions: for time constant of block, τ (single exponential fit): macroscopic. A general note: In patch-clamp work, channel activity is measured electrically.
The target in assay [8] is T2, wild-type BK channel (mslo). Description: Deactivation. It counts as cell-based.
Assay [9] has the same target. Description: State dependence of EBP block in High and Low Ca2+. It counts as cell-based. Particulars: 3 μM EBP.
The next assay deals with Shaker channels. Particulars: ref Murrell-Lagnado and Aldrich, 1993b; cited from earlier work.
Assay [10] concerns BK channels. As to conditions: ref Toro et al., 1994, cited from earlier work.
The target of assay [11] is T2, wild-type BK channel (mslo). Briefly: Competition between TBA and EBP on macroscopic BK currents. Format: cell-based.
The mark [12] stands for this setting: EBP at around half block concentration, 120 mV.
Setting [13] is: 500 μM TBA on top of 3 μM EBP, compared with 3 μM EBP alone.

Structures are written as SMILES. Values joined by “and” are separate entries in the source; they are usually repeats but may differ in a detail not shown here. Equal values may be shown once. “Also recorded” adds a separate entry of the source. Read-outs that look alike come from different tables or passages of the source. Where a SMILES comes first, the peptide text is derived from it.

Chain of wild-type BK channel (mslo, mbr5) (Q08460 66-1209 limits assumed): as above
T1 sequence (Q08460 66-1209 E386N/E389N limits assumed): as the sequence (Q08460 66-1209 limits assumed) above, with E321N, E324N counted along it

Turning to `CCCCCCCCCC[N+](CC)(CC)CC` [C10, Decyltriethylammonium], the “Hill coefficient n (C10)” value is given as 1.01 in assay [1] (E321N, E324N mutant, 100 mV, eight patches); 0.95 in assay [2] (S6/2-KcsA, 100 mV, five patches); 0.97 in [7] (wild type, 100 mV, six patches). Moreover, the “decrease of apparent affinity of block in E321N, E324N mutant vs wild type” value in [1] is around 2.5 fold. Besides, the “affinity of C10 vs TBA, S6/2-KcsA” value in assay [2] is on record as “lower affinity than TBA”. Moreover, the “decrease of apparent affinity of C10 in S6/2-KcsA vs wild type” value in [2] was “almost two orders of magnitude”. The “block of macroscopic S6/2-KcsA currents by C10” value in assay [2] (1 mM C10) was “about half the macroscopic currents”. The “time dependence of block of BK currents” value in the assay with BK channels [3] (ref Li and Aldrich, 2004) is “without apparent time dependence”. Moreover, the association rate was determined as 9.0 ± 1.6 ms^−1 in assay [4] (15 μM C10, mean ± SD) and 12.5 ± 1.1 ms^−1 in assay [5] (E321N, E324N mutant, 40 μM C10, mean ± SD, n = 5). Further, the “dissociation rate of block (mean shut dwell time)” value is 6.4 ± 0.5 ms^−1 in [4] (120 mV, mean ± SD) and 7.8 ± 0.6 ms^−1 in assay [5] (E321N, E324N mutant, 120 mV, mean ± SD, n = 5). In assay [6] (1 mM C10), the “block events in single S6/2-KcsA channels” value is “too fast to resolve”. Besides, in assay [7] (wild-type BK channels), the “affinity of C10 relative to that of TBA” value is on record as around 30 times.

On to `CSCC[C@H](NC(C)=O)C(=O)N[C@@H](C)C(=O)N[C@@H](C)C(=O)N[C@H](C(=O)N[C@@H](C)C(=O)NCC(=O)N[C@@H](CC(C)C)C(=O)N[C@@H](Cc1ccc(O)cc1)C(=O)NCC(=O)N[C@@H](CC(C)C)C(=O)NCC(=O)N[C@@H](CCCCN)C(=O)N[C@@H](CCCCN)C(=O)N[C@@H](CCCNC(=N)N)C(=O)N[C@@H](CCC(N)=O)C(=O)N[C@@H](Cc1c[nH]cn1)C(=O)N[C@@H](CCCNC(=N)N)C(=O)N[C@@H](CCCCN)C(=O)N[C@@H](CCCCN)C(=O)N[C@@H](CCC(N)=O)C(N)=O)C(C)C` [EBP] (Ac-MAAVAGLYGLGKKRQHRKKQ-NH2), for which the “block of E321N, E324N currents by EBP” value in [1] (100 μM EBP, 120 mV) is recorded as below 60%. In assay [1] (120 mV, from fitted dose responses), the “decrease of apparent affinity of EBP block in double mutant vs wild type” value was “more than two orders of magnitude”. In addition, the “Hill coefficient n (EBP)” value in assay [1] (E321N, E324N mutant, 120 mV, 11 patches) amounted to 0.72; in assay [7] (wild type, 120 mV, 500 ms pulses, 5 patches), 1.16. In addition, the “time constant of dominating component of block” value in [1] (setting [12]) is “a few milliseconds”. In addition, the “time constant of very small component of block” value in [1] (setting [12]) is reported as “hundreds of milliseconds”. For the same compound, the “block of S6/2-KcsA current by EBP” value in [2] (100 μM EBP, 120 mV, mean ± SD, n = 5) was 23.0 ± 0.5% and ~20%. Further, the “apparent affinity of EBP for S6/2-KcsA vs E321N, E324N double mutant” value in [2] (120 mV) was “about threefold lower”. Moreover, the “apparent affinity of EBP for S6/2-KcsA vs wild-type BK” value in assay [2] (120 mV) is on record as “more than three orders of magnitude lower”. Moreover, the “deactivation of BK channels” value in assay [8] (3 μM EBP, tail current compared with control) is on record as “slowed compared with the control trace; also recorded: Deactivation of BK channels is slowed by EBP”. Besides, in assay [8] (3 μM EBP, −160 mV after depolarization to 120 mV), the “normalized tail current time constant, τslow (double exponential fit)” value was 7.3 ms. The “normalized tail current time constant, τfast (double exponential fit)” value in assay [8] (3 μM EBP, −160 mV after depolarization to 120 mV (control τ = 0.25 ms)) stood at 0.37 ms. The “tail current time constant, slower component” value in assay [8] (EBP, negative potentials, relatively voltage insensitive) is listed as around 10 ms. In addition, the “tail current time constant, fast component” value in assay [8] (EBP, −60 mV) is around 2 ms; in assay [8] (EBP, −160 mV), around 0.3 ms. Moreover, the “off rate at negative potentials” value in [8] (from modeling tail currents with a C↔O↔B model) was around 100 s⁻¹. In addition, the “fraction of preblock, Po ∼0” value in assay [9] (High Ca^2+, lower end of range −80 to 80 mV) is given as around 0. Also, the “relative amplitude of the test current, change with prepulse” value in assay [9] (Low Ca^2+, −80 to 80 mV, Po ∼0) was “doesn't change much”. Moreover, the “state dependence of block” value in assay [9] (High and Low Ca^2+ solutions) is “much more favored in an open configuration than a closed one; also recorded: peptide binding is much more favored in an opened BK channel”. Besides, the “duration of block events, single E321N, E324N channel” value in assay [5] (100 μM EBP, 80 mV) was “mainly short block events lasting a few milliseconds”. Besides, the “affinity for Shaker channels vs native ShBP” value in the assay with Shaker channels is “much higher affinity for Shaker channels”. The “association rate for Shaker channels vs native ShBP” value in the assay on Shaker channels was “significantly higher association rate for Shaker channels than native ShBP”. The “block events in single S6/2-KcsA channels” value in assay [6] (100 μM EBP, 120 mV) is on record as “fails to result in resolvable block events”. Moreover, the “dissociation rate of EBP in S6/2-KcsA channels vs TBA” value in assay [6] (100 μM each) is “even faster than that of TBA”. The “type of block events, single BK channels” value in the assay with BK channels [10] (near 0 mV) was “mostly short block events; also recorded: predominantly short block events”. For the same compound, the “affinity for BK channels” value in the assay with BK channels [10] (single channel) is reported as “higher affinity for BK channels than ShBP”. For the same compound, the “rising phase of BK currents (activation) vs control” value in assay [7] (1 μM EBP, 120 mV) is “largely unchanged compared with control”. The “time constant of block, τ (single exponential fit)” value is 17.6 ms in assay [7] (1 μM EBP, 120 mV); 4.5 ms in assay [7] (3 μM EBP, 120 mV); 1.1 ms in assay [7] (10 μM EBP, 120 mV). Besides, in [7] (1 μM EBP, end of 60-ms pulses, n = 6), the “fraction of remaining current (I/Io), voltage dependence” value was “decreases with increased membrane potentials”. For the same compound, the “block of wild-type BK currents” value in [7] (3 μM EBP) is “nearly complete block”. Besides, in [7] (3 μM EBP), the “single channel openings at steady-state block” value is on record as “single channel openings to the full current level are clearly evident”. The “1/τ of block, concentration dependence” value in [7] (1, 3 and 10 μM EBP, positive voltages (≥40 mV), n = 6) is “linearly dependent on the concentration of EBP”. Also, the “time constant of the single exponential decay” value in [7] (low concentration of EBP blocking roughly half of the channels (unpublished data)) is reported as around 100 ms. In addition, the “association rate constant (Kon), voltage dependence” value in assay [7] (slope of 1/τ vs EBP concentration) is on record as “larger depolarizations resulting in higher association rate constants”. In addition, the “time constant of block, τ” value turned out to be 2.8 ms in [11] (3 μM EBP alone) and 5.6 ms in assay [11] (3 μM EBP plus 500 μM TBA). For the same compound, the “competition of TBA and EBP binding” value in assay [11] (3 μM EBP, 500 μM TBA, positive potentials) is listed as “mutually exclusive”.

For the compound `CCCC[N+](CCCC)(CCCC)CCCC` [TBA, Tetrabutylammonium], the “block of mutant currents by TBA” value in assay [1] (20 mM TBA, E321N, E324N mutant) is listed as around 100%; in [2] (20 mM TBA, S6/2-KcsA), around 100%. The “Hill coefficient n (TBA)” value in assay [1] (E321N, E324N mutant, 120 mV, nine patches) was found to be 0.89; in [2] (S6/2-KcsA, 120 mV, five patches) it was 0.97; in assay [7] (wild type, 120 mV, five patches), 0.87. For the same compound, the “decrease of apparent affinity of block in E321N, E324N mutant vs wild type” value in assay [1] is given as around 2.5 fold. Moreover, the “affinity of TBA in S6/2-KcsA vs wild-type BK” value in assay [2] is “almost exactly the same affinity”. In addition, the “block of macroscopic S6/2-KcsA currents by TBA” value in [2] (100 μM TBA, 120 mV) was around 20%. In addition, the “sensitivity of S6/2-KcsA channels to TBA” value in [2] (voltage ramp −80 to 200 mV, 0.3 and 10 mM TBA) is listed as “sensitive to millimolar concentrations of TBA”. Further, the “inhibition of BK current at steady state” value with BK channels [3] (500 μM TBA, positive potentials, ref Li and Aldrich, 2004) is around 50%. Further, the “block of BK channels” value with BK channels [3] (internal TBA, "our previous study", ref Li and Aldrich, 2004) is listed as “fast block of BK channels at submillimolar concentrations”. Moreover, the “time dependence of block of BK currents” value in the assay with BK channels [3] (ref Li and Aldrich, 2004) is recorded as “without apparent time dependence”. In addition, the “single channel block in mutant vs wild type” value in assay [5] (1 mM TBA in E321N, E324N mutant vs 0.4 mM in wild type, 120 mV) is “qualitatively very similar”. Further, the “block of single S6/2-KcsA channels vs wild-type BK” value in assay [6] (0.4 mM TBA) is “kinetically very similar”. In [11] (setting [13]), the “reduction of peak current by added TBA” value is reported as “about half”. In addition, the “slowing of time-dependent EBP block by added TBA” value in assay [11] (setting [13]) is “about twofold”.

As to `CCCC[N+](CCCC)(CCCC)Cc1ccc(C(=O)c2ccccc2)cc1` [bbTBA], the “access of blocker to BK channels” value in the assay on BK channels [3] (ref Wilkens and Aldrich, 2006) is “may not be restricted by a cytoplasmic gate”.
